Positions of bridges follow the written chain, without caps; N, C: chain ends. Non-standard residues stand in square brackets, D forms with d. Residues, ends and D or L forms follow the SMILES beside them. Nle = CCCC[C@H](N)C(=O)O
Tested on: Th1 lymphocytes (CD3+, CD4+, CXCR3+, CCR6-) of MS patients
Experiment: Transwell migration assay with PBMC of MS patients, Th1 cells
Format: cell-based, human
Conditions: PBMC of treatment-naive MS patients; mean ± SD, 4 independent measurements; p = 0.048
Description: 5 Activity of the novel VhTI-pep 2 and pepitem on patient lymphocytes. PPBMCs were isolated from the blood of MS patients with a very recent disease flare receiving no immunosuppressive or immunomodulatory treatment in the past. The effect of the linear pepitem and VhTI-pep 2 was tested for the T-cell populations (A) CD3^+, (B) Th1, (C) CD4^+, (D) memory CD4^+, (E) CD8^+, and (F) memory CD8^+ cells. Data are shown as mean ± SD for 4 independent measurements. Statistical analysis was performed on the level of total counted cells using repeated measures one-way ANOVA with Dunnett’s post hoc test. Statistical significance is indicated as n.s. (not significant), * p < 0.05; ** p < 0.01; *** p < 0.001.
Human microvascular endothelial cells (HMEC-1 cells, Cytion, Eppelheim, Germany) were cultured in MCDB-131 medium (with 2.2 g/L sodium bicarbonate, without L-glutamine, PAN-Biotech Aidenbach, Germany) supplemented with 10% fetal bovine serum (FBS, Capricorn Scientific, Ebsdorfergrund, Germany), 100 units/ml penicillin-streptomycin (Sigma-Aldrich) 10 ng/mL epidermal growth factor (BioLegend, San Diego, US), 1 μg/mL hydrocortisone (Sigma-Aldrich), and 10 mM L-glutamine (Sigma-Aldrich). For experiments, the cells were used between passage numbers 4–9. […]

For `CCCC[C@@H]1NC(=O)[C@H](C(C)C)NC(=O)[C@H](CCCCN)NC(=O)[C@@H](NC(=O)[C@H](CCC(N)=O)NC(=O)[C@H](CCC(=O)O)NC(C)=O)CSSC[C@@H](C(=O)N[C@@H](CCC(=O)O)C(=O)N[C@@H](CCCCN)C(N)=O)NC(=O)[C@H](CC(N)=O)NC(=O)[C@H](CC(=O)O)NC(=O)[C@H](CC(C)C)NC(=O)[C@@H]2CSSC[C@H](NC1=O)C(=O)N[C@@H](Cc1ccc(O)cc1)C(=O)N[C@@H](C)C(=O)N[C@@H](CCC(N)=O)C(=O)NCC(=O)N[C@@H](C)C(=O)N[C@@H](CCC(=O)O)C(=O)N[C@@H](CC(C)C)C(=O)N1CCC[C@H]1C(=O)N[C@@H](CCC(=O)O)C(=O)N[C@@H](CC(C)C)C(=O)N[C@@H](CC(C)C)C(=O)N[C@@H](CCCNC(=N)N)C(=O)N[C@@H](CCCNC(=N)N)C(=O)N2` [VhTI-pep 2] (Ac-EQCKV[Nle]CYAQGAELPELLRRCLDNCEK-NH2; disulfide 3-25, 7-21), which “inhibition of migration of Th1 lymphocytes” value is on record?
The value was 34.3 ± 11.4%.
